From patent US8658800B2 (priority 2010, dated 2014) come the findings set out here.

Series [1] in a line: logP by HPLC on reversed-phase columns (C 18), EEC Directive 79/831 Annex V.A8. Type of series: physicochemical. As to the method:
The logP values reported in the table above and in the Preparation Examples were determined in accordance with EEC Directive 79/831 Annex V.A8 by HPLC (High Performance Liquid Chromatography) on reversed-phase columns (C 18), with the following methods:
The LC-MS determination in the acidic range is carried out at pH 2.7 using the mobile phases 0.1% aqueous formic acid and acetonitrile (contains 0.1% formic acid), linear gradient from 10% acetonitrile to 95% acetonitrile
Calibration was carried out using unbranched alkan-2-ones (having from 3 to 16 carbon atoms) with known logP values (the logP values were determined by the retention times using linear interpolation between two successive alkanones).

The subject of series [2] is caterpillars of the armyworm (Spodoptera frugiperda). As to the kind of experiment: Spodoptera frugiperda test (SPODFR spray treatment). Type of series: in vivo. As to conditions: foliar, 168 h, read-out: activity (kill of caterpillars). As to the method: Spodoptera frugiperda Test (SPODFR Spray Treatment)
Solvents: 78.0 parts by weight of acetone
• 1.5 parts by weight of dimethylformamide Emulsifier: 0.5 part by weight of alkylaryl polyglycol ether
To produce a suitable preparation of active compound, 1 part by weight of active compound is mixed with the stated amount of solvents and emulsifier, and the concentrate is diluted with emulsifier-containing water to the desired concentration.
Discs of maize leaves (Zea mays) are sprayed with an active compound preparation of the desired concentration and, after drying, populated with caterpillars of the armyworm (Spodoptera frugiperda).
After 7 days, the effect in % is determined. 100% means that all caterpillars have been killed; 0% means that none of the caterpillars have been killed.

For series [3], the system named is larvae of the mustard beetle (Phaedon cochleariae). As to the kind of experiment: Phaedon test (PHAECO spray treatment). Type of series: in vivo. As to conditions: 168 h, read-out: activity (kill of beetle larvae). On the procedure: Phaedon Test ([…] Spray Treatment) Solvents: 78.0 parts by weight of acetone • • 1.5 parts by weight of dimethylformamide Emulsifier: 0.5 part by weight of alkylaryl polyglycol ether To produce a suitable preparation of active compound, 1 part by weight of active compound is mixed with the stated amount of solvents and emulsifier, and the concentrate is diluted with emulsifier-containing water to the desired concentration. Discs of Chinese cabbage (Brassica pekinensis) are sprayed with an active compound preparation of the desired concentration and, after drying, populated with larvae of the mustard beetle (Phaedon cochleariae).

The mark [4] stands for this setting: HPLC, reversed-phase C 18, acidic range pH 2.7, 0.1% aqueous formic acid/acetonitrile, read-out: log P.
Where [5] appears, read: reversed-phase C18 HPLC column, HPLC, reversed-phase C 18, acidic range pH 2.7, 0.1% aqueous formic acid/acetonitrile, read-out: log P.
Setting [6] is: 100 g/ha, sprayed maize leaf discs, after 7 days.
Where [7] appears, read: 100 g/ha, sprayed Chinese cabbage discs, after 7 days.

Like-named read-outs stand apart in the source and are kept apart here.

In the case of `Cc1cc(C#N)cc(OC(F)F)c1N`, the chromatographic logP in series [1] (setting [4]) worked out at 1.9.

Regarding `Cc1cccc(C(=O)NS(C)(=O)=O)c1NC(=O)c1cc(Cn2nnc(C(F)(F)F)n2)nn1-c1ncccc1Cl` [Compound 5], in series [1] (pH 2.7), the chromatographic logP was 2.47. Besides, in series [2] (in Zea mays), the pest or weed control at 100 g/ha turned out to be 100%.

For `Cc1cc(Cl)cc(C(=O)O)c1NC(=O)c1cc(Cn2nc(C)c(Br)c2C)nn1-c1ncccc1Cl` [Compound 17], in series [1] (setting [5]), the chromatographic logP is 3.16.

On to `Cc1cc(I)cc(C(=O)NS(C)(=O)=O)c1NC(=O)c1cc(Cn2nnc(C(F)(F)C(F)(F)F)n2)nn1-c1ncccc1Br` [Compound 4], for which, in series [1] (setting [5]), the chromatographic logP worked out at 3.39.

With `COC(=O)c1cc(I)cc(C)c1NC(=O)c1cc(Cn2nc(C(F)(F)F)cc2C(F)(F)F)nn1-c1ncccc1Cl` [Compound 11], the chromatographic logP in series [1] (setting [5]) is 4.57.

Regarding `O=C(O)c1cc(Cl)cc(Cl)c1NC(=O)c1cc(Cn2nnc(C(F)F)n2)nn1-c1ncccc1Cl` [Compound 25], in series [1] (setting [5]), the chromatographic logP worked out at 2.55.

For the compound `Cc1cc(F)cc(C(=O)O)c1NC(=O)c1cc(Cn2nnc(C(F)(F)C(F)(F)F)n2)nn1-c1ncccc1Br` [Compound 3], the chromatographic logP in series [1] (setting [5]) was 3.16. In series [2] (setting [6]), the pest or weed control at 100 g/ha came out at 100%.

For the compound `Cc1cc(Cl)cc(OC(F)(F)F)c1NC(=O)c1cc(Cn2nnc(C(F)(F)F)n2)nn1-c1ncccc1Cl` [Compound 10], the chromatographic logP in series [1] (setting [5]) was determined as 4. Also, the pest or weed control at 100 g/ha in series [2] (setting [6]) amounted to 100%.

With `CCC(=O)c1cccc(C)c1NC(=O)c1cc(Cn2nnc(C(F)(F)F)n2)nn1-c1ncccc1Cl` [Compound 34], the chromatographic logP in series [1] (setting [5]) turned out to be 3.35.

As to `Cc1cccc(C(=O)C2CC2)c1NC(=O)c1cc(Cn2nnc(C(F)(F)F)n2)nn1-c1ncccc1Cl` [Compound 35], the chromatographic logP in series [1] (setting [5]) is 3.33. The pest or weed control at 100 g/ha in series [2] (setting [6]) came to 100%.

Take `Cc1cc(Br)cc(OC(F)F)c1N`: the chromatographic logP in series [1] (setting [4]) came out at 2.84.

For `Cc1cc(Cl)cc(C(=O)O)c1NC(=O)c1cc(Cn2nnc(C(F)(F)C(F)(F)F)n2)nn1-c1ncccc1Cl` [Compound 22], the chromatographic logP in series [1] (setting [5]) worked out at 3.44. The pest or weed control at 100 g/ha in series [3] (setting [7]) stood at 100%.

For the compound `Cc1cccc(S(N)(=O)=O)c1NC(=O)c1cc(Cn2nnc(C(F)(F)F)n2)nn1-c1ncccc1Cl` [Compound 32], the chromatographic logP in series [1] (setting [5]) came to 2.56.

As for `Cc1cc(F)cc(C(=O)O)c1NC(=O)c1cc(Cn2nnc(C(F)(F)F)n2)nn1-c1ncccc1Cl` [Compound 20], the chromatographic logP in series [1] (setting [5]) turned out to be 2.75.

Take `Cc1cccc(C(=O)NS(C)(=O)=O)c1N`: the chromatographic logP in series [1] (setting [4]) was determined as 1.1.

As to `Cc1cc(C#N)cc(C(=O)O)c1NC(=O)c1cc(Cn2cnc(C(F)(F)F)c2C(F)(F)F)nn1-c1ncccc1Cl` [Compound 16], the chromatographic logP in series [1] (setting [5]) came out at 2.63. The pest or weed control at 100 g/ha in series [3] (setting [7]) came out at 100%.

Regarding `O=C(O)c1cc(Cl)cc(Cl)c1NC(=O)c1cc(Cn2nnc(C(F)(F)C(F)(F)F)n2)nn1-c1ncccc1Cl` [Compound 23], the chromatographic logP in series [1] (setting [5]) is 3.37. In series [3] (setting [7]), the pest or weed control at 100 g/ha was determined as 100%.

Take `O=C(O)c1cc(Cl)cc(Cl)c1NC(=O)c1cc(Cn2nc(C(F)(F)C(F)(F)C(F)(F)F)cc2C(F)(F)F)nn1-c1ncccc1Cl` [Compound 15]: in series [1] (setting [4]), the chromatographic logP turned out to be 4.4. For the same compound, the pest or weed control at 100 g/ha in series [3] (in Brassica rapa) worked out at 83%.

As to `Cc1cc(C#N)cc(C(=O)O)c1NC(=O)c1cc(Cn2nc(C(F)F)cc2C(F)F)nn1-c1ncccc1Cl` [Compound 18], the chromatographic logP in series [1] (setting [5]) was determined as 2.62.

In the case of `Cc1cc(Cl)cc(C(=O)NS(=O)(=O)N(C)C)c1NC(=O)c1cc(Cn2cc(C(F)(F)C(F)(F)F)cn2)nn1-c1ncccc1Cl` [Compound 1], in series [1] (pH 2.7), the chromatographic logP worked out at 3.35.

`CNS(=O)(=O)c1cccc(C)c1NC(=O)c1cc(Cn2nnc(C(F)(F)F)n2)nn1-c1ncccc1Cl` [Compound 33]: in series [1] (setting [5]), the chromatographic logP was found to be 2.9.

Regarding `Cc1cc(I)cc(C(=O)O)c1NC(=O)c1cc(Cn2ncc(C(F)(F)F)n2)nn1-c1ncccc1Cl` [Compound 27], the chromatographic logP in series [1] (setting [5]) was 3.26. In series [2] (setting [6]), the pest or weed control at 100 g/ha was 83%.
